Data: patent publication US9695155B2, “Herbicidal substituted pyrimidinyloxy benzene compounds” (E. I. DU PONT DE NEMOURS AND COMPANY, priority 2013, dated 2017)

Experiments:
sedge, umbrella = test: Test C flooded paddy test; format: in vivo, Cyperus difformis; details: Flood, scale 0 to 100 (0 no effect, 100 complete control), 13 to 15 days
Outline: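 Ratings were visual and made relative to untreated controls after 13 to 15 greenhouse days.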

Italian ryegrass = test: Test E preemergence; format: in vivo, Lolium multiflorum; details: for Ryegrass, Italian plant response rating: scale 0 to 100 (0 no effect, 100 complete control); for Plant response rating, Ryegrass, Italian: scale 0 to 100, 0 no effect, 100 complete control
Source text: (§1) Seeds of plant species selected from corn (Zea mays), soybean (Glycine max), velvetleaf (Abutilon theophrasti), lambsquarters (Chenopodium album), wild poinsettia (Euphorbia heterophylla), palmer pigweed (Amaranthus palmeri), waterhemp (common waterhemp, Amaranthus rudis), surinam grass (Brachiaria decumbens), large (Lg) crabgrass (Digitaria sanguinalis), Brazilian crabgrass (Digitaria horizontalis), fall panicum (Panicum dichotomiflorum), giant foxtail (Setaria faberii), green foxtail (Setaria viridis), goosegrass (Eleusine indica), johnsongrass (Sorghum halepense), ragweed (common ragweed, Ambrosia elatior), barnyardgrass (Echinochloa crus-galli), sandbur (southern sandbur, Cenchrus echinatus), arrowleaf sida (Sida rhombifolia), Italian ryegrass (Lolium multiflorum), dayflower (Virginia (VA) dayflower, Commelina virginica), field bindweed (Convolvulus arvensis), morningglory (Ipomoea coccinea), nightshade (eastern black nightshade, Solanum ptycanthum), kochia (Kochia scoparia), yellow nutsedge (Cyperus esculentus), cocklebur (common cocklebur, Xanthium strumarium), smartweed (ladysthumb smartweed, and hairy beggarticks (Bidens pilosa), were planted into a silt loam soil and treated preemergence with test chemicals formulated in a non-phytotoxic solvent mixture which included a surfactant.
(§2) At the same time, plants from these crop and weed species and also horseweed (Canada horseweed, Conyza canadensis), waterhemp_RES1, (ALS & Triazine resistant common waterhemp, Amaranthus rudis), and waterhemp_RES2, (ALS & HPPD resistant common waterhemp, Amaranthus rudis) were planted in pots containing Redi-Earth® planting medium (Scotts Company, 14111 Scottslawn Road, Marysville, Ohio 43041) comprising spaghnum peat moss, vermiculite, wetting agent and starter nutrients were treated with postemergence applications of test chemicals formulated in the same manner. Plants ranged in height from 2 to 18 cm for postemergence treatments (1- to 4-leaf stage). Treated plants and controls were maintained in a greenhouse for 14 to 21 days, after which time all species were compared to controls and visually evaluated. Plant response ratings, summarized in Table E, are based on a scale of 0 to 100 where 0 is no effect and 100 is complete control. A dash (-) response means no test result.

corn = test: Test E preemergence; format: in vivo, Zea mays; details: for Corn plant response rating: scale 0 to 100 (0 no effect, 100 complete control); for Plant response rating, Corn: scale 0 to 100, 0 no effect, 100 complete control
Source text: as §1, §2

waterhemp = test: Test E preemergence; format: in vivo, Amaranthus rudis; details: for Waterhemp plant response rating: scale 0 to 100 (0 no effect, 100 complete control); for Plant response rating, Waterhemp: scale 0 to 100, 0 no effect, 100 complete control
Source text: as §1, §2

soybean = test: Test E preemergence; format: in vivo, Glycine max; details: for Soybean plant response rating: scale 0 to 100 (0 no effect, 100 complete control); for Plant response rating, Soybean: scale 0 to 100, 0 no effect, 100 complete control
Source text: as §1, §2

kochia = test: Test E preemergence; format: in vivo, Kochia scoparia; details: for Kochia plant response rating: scale 0 to 100 (0 no effect, 100 complete control); for Plant response rating, Kochia: scale 0 to 100, 0 no effect, 100 complete control
Source text: as §1, §2

green foxtail = test: Test E preemergence; format: in vivo, Setaria viridis; details: for Foxtail, Green plant response rating: scale 0 to 100 (0 no effect, 100 complete control); for Plant response rating, Foxtail, Green: scale 0 to 100, 0 no effect, 100 complete control
Source text: as §1, §2

ragweed = test: Test A postemergence; format: in vivo, Ambrosia elatior
Outline: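 Pre- and postemergence greenhouse screen. Soil: loam + sand. Spray carrier: solvent mixture, non-phytotoxic, with surfactant. Post timing at 1–2 leaves, height 2–10 cm. Readout: visual injury on a 0–100 scale roughly 10 days after application, untreated plants as reference.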

[1] = 125 g ai/ha, 0 to 100 scale where 0 is no effect and 100 is complete control
[2] = 500 g ai/ha, 0 to 100 scale where 0 is no effect and 100 is complete control
[3] = 31 g ai/ha, 0 to 100 scale, 0 no effect, 100 complete control
[4] = 1000 g ai/ha, 0 to 100 scale, 0 no effect, 100 complete control
[5] = 125 g ai/ha, 0 to 100 scale, 0 no effect, 100 complete control

Clc1cnc(Oc2ccccc2-n2cc(Cl)cn2)nc1 [Compound 3]
Plant response rating, Sedge, Umbrella (sedge, umbrella; 31 g ai/ha): 0
Plant response rating, Sedge, Umbrella (sedge, umbrella; 62 g ai/ha): 0
Plant response rating, Sedge, Umbrella (sedge, umbrella; 125 g ai/ha): 20
Plant response rating, Sedge, Umbrella (sedge, umbrella; 250 g ai/ha): 70

FC(F)(F)c1cnn(-c2ccccc2Oc2ncc(Cl)cn2)c1 [Compound 16]
Ryegrass, Italian plant response rating (Italian ryegrass; 16 g ai/ha): 0
Ryegrass, Italian plant response rating (Italian ryegrass; 31 g ai/ha): 0
Ryegrass, Italian plant response rating (Italian ryegrass; 62 g ai/ha): 15
Plant response rating, Ryegrass, Italian (Italian ryegrass; 125 g ai/ha): 40
Plant response rating, Ryegrass, Italian (Italian ryegrass; 250 g ai/ha): 75
Corn plant response rating (corn; 16 g ai/ha): 0
Corn plant response rating (corn; 31 g ai/ha): 0
Corn plant response rating (corn; 62 g ai/ha): 0
Plant response rating, Corn (corn; 125 g ai/ha): 20
Plant response rating, Corn (corn; 250 g ai/ha): 25
Waterhemp plant response rating (waterhemp; 16 g ai/ha): 100
Waterhemp plant response rating (waterhemp; 31 g ai/ha): 100
Waterhemp plant response rating (waterhemp; 62 g ai/ha): 100
Plant response rating, Waterhemp (waterhemp; 125 g ai/ha): 100
Plant response rating, Waterhemp (waterhemp; 250 g ai/ha): 100
Soybean plant response rating (soybean; 16 g ai/ha): 0
Soybean plant response rating (soybean; 31 g ai/ha): 60
Soybean plant response rating (soybean; 62 g ai/ha): 60
Plant response rating, Soybean (soybean; 125 g ai/ha): 90
Plant response rating, Soybean (soybean; 250 g ai/ha): 95
Kochia plant response rating (kochia; 16 g ai/ha): 0
Kochia plant response rating (kochia; 31 g ai/ha): 0
Kochia plant response rating (kochia; 62 g ai/ha): 65
Plant response rating, Kochia (kochia; 125 g ai/ha): 100
Plant response rating, Kochia (kochia; 250 g ai/ha): 100
Foxtail, Green plant response rating (green foxtail; 16 g ai/ha): 0
Foxtail, Green plant response rating (green foxtail; 31 g ai/ha): 20
Foxtail, Green plant response rating (green foxtail; 62 g ai/ha): 70
Plant response rating, Foxtail, Green (green foxtail; 125 g ai/ha): 90
Plant response rating, Foxtail, Green (green foxtail; 250 g ai/ha): 100

FC(F)(F)c1cnn(-c2ccccc2Oc2ncc(Br)cn2)c1 [Compound 18, 5-bromo-2-[2-[4-(trifluoromethyl)-1H-pyrazol-1-yl]phenoxy]pyrimidine]
Ryegrass, Italian plant response rating (Italian ryegrass; 16 g ai/ha): 0
Ryegrass, Italian plant response rating (Italian ryegrass; 31 g ai/ha): 0
Ryegrass, Italian plant response rating (Italian ryegrass; 62 g ai/ha): 0
Plant response rating, Ryegrass, Italian (Italian ryegrass; 125 g ai/ha): 20
Plant response rating, Ryegrass, Italian (Italian ryegrass; 250 g ai/ha): 35
Corn plant response rating (corn; 16 g ai/ha): 0
Corn plant response rating (corn; 31 g ai/ha): 0
Corn plant response rating (corn; 62 g ai/ha): 0
Plant response rating, Corn (corn; 125 g ai/ha): 0
Plant response rating, Corn (corn; 250 g ai/ha): 0
Waterhemp plant response rating (waterhemp; 16 g ai/ha): 100
Waterhemp plant response rating (waterhemp; 31 g ai/ha): 100
Waterhemp plant response rating (waterhemp; 62 g ai/ha): 100
Plant response rating, Waterhemp (waterhemp; 125 g ai/ha): 100
Plant response rating, Waterhemp (waterhemp; 250 g ai/ha): 100
Soybean plant response rating (soybean; 16 g ai/ha): 0
Soybean plant response rating (soybean; 31 g ai/ha): 0
Soybean plant response rating (soybean; 62 g ai/ha): 60
Plant response rating, Soybean (soybean; 125 g ai/ha): 90
Plant response rating, Soybean (soybean; 250 g ai/ha): 90
Kochia plant response rating (kochia; 16 g ai/ha): 0
Kochia plant response rating (kochia; 31 g ai/ha): 0
Kochia plant response rating (kochia; 62 g ai/ha): 80
Plant response rating, Kochia (kochia; 125 g ai/ha): 100
Plant response rating, Kochia (kochia; 250 g ai/ha): 100
Plant response rating, Sedge, Umbrella (sedge, umbrella; 31 g ai/ha): 70
Plant response rating, Sedge, Umbrella (sedge, umbrella; 62 g ai/ha): 75
Plant response rating, Sedge, Umbrella (sedge, umbrella; 125 g ai/ha): 85
Plant response rating, Sedge, Umbrella (sedge, umbrella; 250 g ai/ha): 90
Foxtail, Green plant response rating (green foxtail; 16 g ai/ha): 0
Foxtail, Green plant response rating (green foxtail; 31 g ai/ha): 0
Foxtail, Green plant response rating (green foxtail; 62 g ai/ha): 65
Plant response rating, Foxtail, Green (green foxtail; 125 g ai/ha): 100
Plant response rating, Foxtail, Green (green foxtail; 250 g ai/ha): 100

N#Cc1cccc(Oc2ncc(F)cn2)c1-n1cc(Br)cn1 [Compound 62]
Plant response rating, Sedge, Umbrella (sedge, umbrella; 31 g ai/ha): 0
Plant response rating, Sedge, Umbrella (sedge, umbrella; 62 g ai/ha): 50
Plant response rating, Sedge, Umbrella (sedge, umbrella; 125 g ai/ha): 90
Plant response rating, Sedge, Umbrella (sedge, umbrella; 250 g ai/ha): 100

Clc1cnc(Oc2cccc(Br)c2-n2cc(Br)cn2)nc1 [Compound 65]
Plant response rating, Sedge, Umbrella (sedge, umbrella; 31 g ai/ha): 50
Plant response rating, Sedge, Umbrella (sedge, umbrella; 62 g ai/ha): 65
Plant response rating, Sedge, Umbrella (sedge, umbrella; 125 g ai/ha): 75
Plant response rating, Sedge, Umbrella (sedge, umbrella; 250 g ai/ha): 85

FCc1cccc(Oc2ncc(Cl)cn2)c1-n1cc(Br)cn1 [Compound 83]
Plant response rating, Ragweed (ragweed; [1]): 70
Plant response rating, Ragweed (ragweed; [2]): 80

CCOc1cn(-c2c(Br)cccc2Oc2ncc(Cl)cn2)nn1 [Compound 84]
Plant response rating, Ragweed (ragweed; [1]): 50
Plant response rating, Ragweed (ragweed; [2]): 90

FCc1cccc(Oc2ncc(F)cn2)c1-n1cc(C(F)(F)F)cn1 [Compound 118]
Plant response rating, Ragweed (ragweed; [3]): 70

FCc1cccc(Oc2ncc(Br)cn2)c1-n1cc(C(F)(F)F)cn1 [Compound 120]
Plant response rating, Ragweed (ragweed; [3]): 30
Plant response rating, Sedge, Umbrella (sedge, umbrella; 31 g ai/ha): 0
Plant response rating, Sedge, Umbrella (sedge, umbrella; 62 g ai/ha): 0
Plant response rating, Sedge, Umbrella (sedge, umbrella; 125 g ai/ha): 60
Plant response rating, Sedge, Umbrella (sedge, umbrella; 250 g ai/ha): 85

Clc1cnc(Oc2cccc(Br)c2-n2cc(Br)nn2)nc1 [Compound 129]
Ragweed plant response rating (ragweed; [1]): 80
Plant response rating, Ragweed (ragweed; [2]): 90

FC(F)(F)Sc1cnn(-c2ccccc2Oc2ncc(Cl)cn2)c1 [Compound 132, 5-chloro-2-[2-[4-(trifluoromethylthio)-1H-pyrazol-1-yl]phenoxy]pyrimidine]
Ragweed plant response rating (ragweed; [1]): 10
Plant response rating, Ragweed (ragweed; [2]): 30

Cc1cnc(Oc2cccc(C#N)c2-n2cc(I)cn2)nc1 [Compound 136]
Ragweed plant response rating (ragweed; [1]): 50
Plant response rating, Ragweed (ragweed; [2]): 100

COc1cnn(-c2c(C#N)cccc2Oc2ncc(Cl)cn2)c1 [Compound 137]
Ragweed plant response rating (ragweed; [1]): 20
Plant response rating, Ragweed (ragweed; [2]): 100

CCCOc1cnn(-c2c(C#N)cccc2Oc2ncc(Cl)cn2)c1 [Compound 150]
Ragweed plant response rating (ragweed; [1]): 20
Plant response rating, Ragweed (ragweed; [2]): 60
Plant response rating, Sedge, Umbrella (sedge, umbrella; 31 g ai/ha): 0
Plant response rating, Sedge, Umbrella (sedge, umbrella; 62 g ai/ha): 50
Plant response rating, Sedge, Umbrella (sedge, umbrella; 125 g ai/ha): 75
Plant response rating, Sedge, Umbrella (sedge, umbrella; 250 g ai/ha): 85

FCc1cn(-c2c(F)cccc2Oc2ncc(Cl)cn2)nn1 [Compound 154]
Plant response rating, Ragweed (ragweed; [4]): 100

Fc1cccc(Oc2ncc(Cl)cn2)c1-n1cc(C2CC2)nn1 [Compound 155]
Plant response rating, Ragweed (ragweed; [4]): 100

N#Cc1cnn(-c2c(Oc3ncc(Cl)cn3)cccc2C(F)F)c1 [Compound 236]
Plant response rating, Sedge, Umbrella (sedge, umbrella; 31 g ai/ha): 0
Plant response rating, Sedge, Umbrella (sedge, umbrella; 62 g ai/ha): 20
Plant response rating, Sedge, Umbrella (sedge, umbrella; 125 g ai/ha): 60
Plant response rating, Sedge, Umbrella (sedge, umbrella; 250 g ai/ha): 80

N#Cc1cccc(Oc2ncc(Cl)cn2)c1-n1cnc(C(F)(F)F)c1 [Compound 252, 3-[(5-chloro-2-pyrimidinyl)oxy]-2-[4-(trifluoromethyl)-1H-imidazol-1-yl]benzonitrile]
Plant response rating, Ragweed (ragweed; [3]): 20
Plant response rating, Ragweed (ragweed; [5]): 70
Plant response rating, Ragweed (ragweed; [2]): 90

Fc1cccc(Oc2ncc(Cl)cn2)c1-n1cc(OCC(F)(F)F)cn1 [Compound 270]
Plant response rating, Ragweed (ragweed; [3]): 0
Plant response rating, Ragweed (ragweed; [5]): 20
Plant response rating, Sedge, Umbrella (sedge, umbrella; 31 g ai/ha): 0
Plant response rating, Sedge, Umbrella (sedge, umbrella; 62 g ai/ha): 25
Plant response rating, Sedge, Umbrella (sedge, umbrella; 125 g ai/ha): 60
Plant response rating, Sedge, Umbrella (sedge, umbrella; 250 g ai/ha): 95

N#Cc1cccc(Oc2ncc(Cl)cn2)c1-n1cc(-n2ccc(C(F)(F)F)n2)cn1 [Compound 284]
Plant response rating, Ragweed (ragweed; [5]): 20
Plant response rating, Ragweed (ragweed; [2]): 20
